The values below come from the NIST ThermoML archive (doi:10.1016/j.tca.2016.07.008).

Numbers after ± are expanded uncertainties.

For data set [1] the following is noted: Crystal; DTA.
Data set [2] is described as follows: Molar enthalpy of transition or fusion. Particulars: Crystal; DSC.

For the compound `O=C(N/N=C/c1ccccc1O)c1ccncc1` [N'-(2-hydroxybenzylidene)isonicotinohydrazide], the Normal melting temperature in data set [1] came to 248.20 ± 2 °C. For the same compound, the “Molar enthalpy of transition or fusion” value in data set [2] was 45.4 ± 1 kJ/mol.
For `COc1cccc(/C=N/NC(=O)c2ccncc2)c1O` [N'-(2-hydroxy-3-methoxybenzylidene)isonicotinohydrazide], in that order: 236.70 ± 2 °C and 49.7 ± 1.1 kJ/mol.
